# Assay results reported in ChEMBL document CHEMBL1201862, “PubChem BioAssay data set” (2004).
#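 In this assay, cells in 96-well plates receive the compound at five concentrations for 48 hours. Endpoints are linearly interpolated between the surrounding concentrations. Here, GI50 denotes the concentration required for 50% inhibition of growth.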 Active and inactive are the calls of the source. Rule as the data show it: active = GI50 up to about 1.1 µM and inactive = higher.
# Tests used:
# Assay in all cases: NCI anticancer screen, dose series, 48 h
# EKVX = test system: EKVX
# SNB-19 = test system: SNB-19
# COLO 205 = test system: COLO 205
# UO-31 = test system: UO-31
# OVCAR-5 = test system: OVCAR-5
# A549 = test system: A549
# SW-620 = test system: SW-620
# HCC 2998 = test system: HCC 2998
# NCI-H23 = test system: NCI-H23
# RPMI-8226 = test system: RPMI-8226
# TK-10 = test system: TK-10
# LXFL 529 = test system: LXFL 529
# DMS-273 = test system: DMS-273
# SK-MEL-2 = test system: SK-MEL-2
# HCT-116 = test system: HCT-116
# ACHN = test system: ACHN
# SK-MEL-28 = test system: SK-MEL-28
# HT-29 = test system: HT-29
# HOP-92 = test system: HOP-92
# IGROV-1 = test system: IGROV-1
# KM12 = test system: KM12
# 786-0 = test system: 786-0
# SF-268 = test system: SF-268
# MOLT-4 = test system: MOLT-4
# NCI-H226 = test system: NCI-H226
# SK-MEL-5 = test system: SK-MEL-5
# SNB-78 = test system: SNB-78
# M19-MEL = test system: M19-MEL
# U-251 = test system: U-251
# KM-20L2 = test system: KM-20L2
# HCT-15 = test system: HCT-15
# UACC-257 = test system: UACC-257
# UACC-62 = test system: UACC-62
# SN12C = test system: SN12C
# OVCAR-8 = test system: OVCAR-8
# SK-OV-3 = test system: SK-OV-3
# K562 = test system: K562
# SF-539 = test system: SF-539
# RXF 393 = test system: RXF 393
# SF-295 = test system: SF-295
# Malme-3M = test system: Malme-3M
# SNB-75 = test system: SNB-75
# NCI-H460 = test system: NCI-H460
# XF498 = test system: XF498
# DLD-1 = test system: DLD-1
# OVCAR-3 = test system: OVCAR-3
# M14 = test system: M14
# OVCAR-4 = test system: OVCAR-4
# HL-60 = test system: HL-60
# LOX IMVI = test system: LOX IMVI
# NCI-H522 = test system: NCI-H522
# DMS-114 = test system: DMS-114
# SR = test system: SR
# HOP-62 = test system: HOP-62
# CCRF-CEM = test system: CCRF-CEM
# CAKI-1 = test system: CAKI-1
structure (smiles),measurement,setting,value
O=c1[nH]c(-c2ccc([N+](=O)[O-])cc2)nc2ccc(Cl)cc12,GI50,EKVX,> 100 µM (inactive)
same,GI50,SNB-19,66.2 µM (inactive)
same,GI50,COLO 205,> 100 µM (inactive)
same,GI50,UO-31,> 100 µM (inactive)
same,GI50,OVCAR-5,> 100 µM (inactive)
same,GI50,A549,> 100 µM (inactive)
same,GI50,SW-620,> 100 µM (inactive)
same,GI50,HCC 2998,> 100 µM (inactive)
same,GI50,NCI-H23,> 100 µM (inactive)
same,GI50,RPMI-8226,47.1 µM (inactive)
same,GI50,TK-10,51.8 µM (inactive)
same,GI50,LXFL 529,44.2 µM (inactive)
same,GI50,DMS-273,> 100 µM (inactive)
same,GI50,SK-MEL-2,> 100 µM (inactive)
same,GI50,HCT-116,> 100 µM (inactive)
same,GI50,ACHN,> 100 µM (inactive)
same,GI50,SK-MEL-28,> 100 µM (inactive)
same,GI50,HT-29,> 100 µM (inactive)
same,GI50,HOP-92,26.8 µM (inactive)
same,GI50,IGROV-1,55.3 µM (inactive)
same,GI50,KM12,> 100 µM (inactive)
same,GI50,786-0,> 100 µM (inactive)
same,GI50,SF-268,> 100 µM (inactive)
same,GI50,MOLT-4,23.6 µM (inactive)
same,GI50,NCI-H226,> 10 µM (inactive)
same,GI50,SK-MEL-5,> 100 µM (inactive)
same,GI50,SNB-78,> 100 µM (inactive)
same,GI50,M19-MEL,> 100 µM (inactive)
same,GI50,U-251,54.6 µM (inactive)
same,GI50,KM-20L2,> 100 µM (inactive)
same,GI50,HCT-15,94.4 µM
same,GI50,UACC-257,> 100 µM (inactive)
same,GI50,UACC-62,> 100 µM (inactive)
same,GI50,SN12C,> 100 µM (inactive)
same,GI50,OVCAR-8,> 100 µM (inactive)
same,GI50,SK-OV-3,77.3 µM (inactive)
same,GI50,K562,17.9 µM (inactive)
same,GI50,SF-539,> 100 µM (inactive)
same,GI50,RXF 393,78.3 µM (inactive)
same,GI50,SF-295,> 100 µM (inactive)
same,GI50,Malme-3M,> 100 µM (inactive)
same,GI50,SNB-75,57.5 µM (inactive)
COc1cc(C2c3cc4c(cc3[C@@H](NCCN(C)C)C3COC(=O)[C@H]23)OCO4)cc(OC)c1O (stereo partly drawn),GI50,NCI-H460,< 0.01 µM (active)
same,GI50,SNB-19,0.598 µM (active)
same,GI50,UO-31,0.284 µM (active)
same,GI50,A549,0.0207 µM (active)
same,GI50,SW-620,0.296 µM (active)
same,GI50,RPMI-8226,0.29 µM (active)
same,GI50,XF498,0.2 µM (active)
same,GI50,TK-10,1.69 µM (inactive)
same,GI50,LXFL 529,1.82 µM (inactive)
same,GI50,SK-MEL-28,0.309 µM (active)
same,GI50,HOP-92,0.0303 µM (active)
same,GI50,KM12,0.931 µM (active)
same,GI50,DLD-1,1.46 µM (inactive)
same,GI50,OVCAR-3,1.34 µM (inactive)
same,GI50,NCI-H226,0.0156 µM (active)
same,GI50,SK-MEL-5,0.133 µM (active)
same,GI50,M14,0.255 µM (active)
same,GI50,M19-MEL,0.91 µM (active)
same,GI50,U-251,0.0687 µM (active)
same,GI50,OVCAR-4,3.09 µM (inactive)
same,GI50,HL-60,0.0127 µM (active)
same,GI50,K562,0.407 µM (active)
same,GI50,SF-539,0.0585 µM (active)
same,GI50,Malme-3M,0.36 µM (active)
same,GI50,SNB-75,0.13 µM (active)
Cc1ccc2c(c1)CN1c3ccc(C)cc3CN2C1c1ccccc1O,GI50,NCI-H460,33.9 µM (inactive)
same,GI50,EKVX,7.19 µM (inactive)
same,GI50,COLO 205,78.7 µM (inactive)
same,GI50,UO-31,24.9 µM (inactive)
same,GI50,OVCAR-5,18.6 µM (inactive)
same,GI50,A549,> 100 µM (inactive)
same,GI50,SW-620,61.9 µM (inactive)
same,GI50,LOX IMVI,58.5 µM (inactive)
same,GI50,NCI-H23,27.3 µM (inactive)
same,GI50,RPMI-8226,19.5 µM (inactive)
same,GI50,TK-10,26.2 µM (inactive)
same,GI50,NCI-H522,65.6 µM (inactive)
same,GI50,LXFL 529,48.8 µM (inactive)
same,GI50,DMS-273,13.5 µM (inactive)
same,GI50,SK-MEL-2,48.9 µM (inactive)
same,GI50,HCT-116,18.7 µM (inactive)
same,GI50,ACHN,40.3 µM (inactive)
same,GI50,SK-MEL-28,37.5 µM (inactive)
same,GI50,HT-29,42 µM (inactive)
same,GI50,HOP-92,15.2 µM (inactive)
same,GI50,IGROV-1,79.4 µM (inactive)
same,GI50,KM12,43.3 µM (inactive)
same,GI50,DLD-1,26.5 µM (inactive)
same,GI50,786-0,42.5 µM (inactive)
same,GI50,DMS-114,16.8 µM (inactive)
same,GI50,OVCAR-3,21.5 µM (inactive)
same,GI50,SF-268,81.7 µM (inactive)
same,GI50,MOLT-4,35.2 µM (inactive)
same,GI50,NCI-H226,49.5 µM (inactive)
same,GI50,SR,11.7 µM (inactive)
same,GI50,SK-MEL-5,13.7 µM (inactive)
same,GI50,HOP-62,85.9 µM (inactive)
same,GI50,SNB-78,67.1 µM (inactive)
same,GI50,M14,> 100 µM (inactive)
same,GI50,M19-MEL,41.1 µM (inactive)
same,GI50,U-251,38.5 µM (inactive)
same,GI50,OVCAR-4,57 µM (inactive)
same,GI50,CCRF-CEM,47.9 µM (inactive)
same,GI50,HCT-15,23.6 µM
same,GI50,UACC-62,25.1 µM (inactive)
same,GI50,SN12C,29.9 µM (inactive)
same,GI50,OVCAR-8,> 100 µM (inactive)
same,GI50,HL-60,14.8 µM (inactive)
same,GI50,SK-OV-3,> 100 µM (inactive)
same,GI50,K562,34.7 µM (inactive)
same,GI50,SF-539,49 µM (inactive)
same,GI50,RXF 393,7.18 µM (inactive)
same,GI50,SF-295,46.8 µM (inactive)
same,GI50,Malme-3M,> 100 µM (inactive)
same,GI50,CAKI-1,> 100 µM (inactive)
same,GI50,SNB-75,0.667 µM (active)
